Laboratory results: the supplement of paper PMC4862054

System: HDQ-P1
Test: normalised response (% of control), CellTiter-Glo; higher = more viable cells (100 = DMSO, 0 = benzethonium chloride kill control)
Conditions: incubation time: 72 h
How it was run: (§1)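 Each entry is the normalised signal at a single concentration within a series. The series comprised 5 concentrations in 10-fold steps over a compound-specific 10,000-fold range, placed in 384-well plates into which breast cancer cell lines were seeded as 20 µl suspension and incubated 72 h. CellTox Green (485/520 nm) fluorescence and then CellTiter-Glo luminescence were read, with signals normalised per plate to 0.1 % DMSO (100) and a positive kill control (0).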

Going from `C=C1C[C@@H]2[C@H](CC[C@]3(C)C(=O)CC[C@@H]23)[C@@]2(C)C=CC(=O)C=C12` [Exemestane] (1000 nM) to `CCc1c2c(nc3ccc(OC(=O)N4CCC(N5CCCCC5)CC4)cc13)-c1cc3c(c(=O)n1C2)COC(=O)[C@]3(O)CC` [Irinotecan] (1000 nM), the normalised response falls from 99.3% to 95.5%.

Compared with `COc1cc2ncnc(Nc3ccc(F)c(Cl)c3)c2cc1OCCCN1CCOCC1` [Gefitinib] (1000 nM), `Cc1ccc(NC(=O)c2ccc(CN3CCN(C)CC3)cc2)cc1Nc1nc(-c2cccnc2)cs1` [Masitinib] (1000 nM) is higher in normalised response: 69% for the first, 98.8% for the second.

First: O=C(Nc1ccncc1)C(=O)c1cn(Cc2ccc(Cl)cc2)c2ccccc12 [Indibulin] (1000 nM)
Second: c1ccc2c(CCNc3ccc(Nc4ccncc4)cc3)c[nH]c2c1 [Serdemetan] (1000 nM)
The normalised response of the first is lower: 80.1% for the first, 90% for the second.

Going from `NC(=O)c1ccc(I)c([N+](=O)[O-])c1` [Iniparib] (1000 nM) to `Cc1[nH]c2ccccc2c1CCNCc1ccc(/C=C/C(=O)NO)cc1` [Panobinostat] (100 nM), the normalised response falls from 97% to 62.3%.

First: Oc1ccc2c(c1)CC[C@H](c1ccccc1)[C@@H]2c1ccc(OCCN2CCCC2)cc1 [Lasofoxifene] (100 nM)
Second: CN(C)CCOc1ccc(/C(=C(/CCCl)c2ccccc2)c2ccccc2)cc1 [Toremifene] (1000 nM)
The normalised response of the first is higher: 99.4% for the first, 96.6% for the second.

Going from `O=C(Nc1cccnc1)N1CCC(Cc2cccc(Oc3ccc(C(F)(F)F)cn3)c2)CC1` [PF-3845] (1000 nM) to `CNC(=O)c1cc(Oc2ccc(NC(=O)Nc3ccc(Cl)c(C(F)(F)F)c3)c(F)c2)ccn1` [Regorafenib] (1000 nM), the normalised response falls from 98.1% to 90.9%.

Going from `COCC1(CO)C(=O)C2CCN1CC2` (configuration not stated) [Prima-1 Met] (1000 nM) to `CC(C)C[C@@H](C(=O)N[C@H](C(=O)OC1CCCC1)c1ccccc1)[C@H](O)C(=O)NO` [Tosedostat] (1000 nM), the normalised response falls from 96.3% to 74.1%.

Work on `COCC[n+]1c2c(n(Cc3cnccn3)c1C)C(=O)c1ccccc1C2=O` [YM155] (1000 nM) yielded a normalised response of -0.17%.

System: Hs578T
Test: as above
Conditions: incubation time: 72 h
How it was run: as §1

First: N#Cc1ccc(COC[C@H]2O[C@@H](n3c(NCc4ccc(Cl)c(Cl)c4)nc4c(N)ncnc43)[C@H](O)[C@@H]2O)cc1 (10000 nM)
Second: COc1cc(OC2CCN(C)CC2)ccc1Nc1ncc2c(n1)n(C1CCCC1)c(=O)n2C [AZ 3146] (10000 nM)
The normalised response of the first is higher: 78.2% for the first, 63% for the second.

Going from `CN(C)c1nc(N(C)C)nc(N(C)C)n1` [Altretamine] (10000 nM) to `O=C(/C=C/c1cccc(S(=O)(=O)Nc2ccccc2)c1)NO` [Belinostat] (10000 nM), the normalised response falls from 105% to 7.71%.

System: MDA-MB-453
Test: as above
Conditions: incubation time: 72 h
How it was run: as §1

First: N#Cc1ccc(COC[C@H]2O[C@@H](n3c(NCc4ccc(Cl)c(Cl)c4)nc4c(N)ncnc43)[C@H](O)[C@@H]2O)cc1 (10000 nM)
Second: COc1cc(OC2CCN(C)CC2)ccc1Nc1ncc2c(n1)n(C1CCCC1)c(=O)n2C [AZ 3146] (10000 nM)
The normalised response of the first is lower: 75% for the first, 95.7% for the second.

First: CN(C)c1nc(N(C)C)nc(N(C)C)n1 [Altretamine] (10000 nM)
Second: O=C(/C=C/c1cccc(S(=O)(=O)Nc2ccccc2)c1)NO [Belinostat] (10000 nM)
The normalised response of the first is higher: 108% for the first, 2.73% for the second.

System: MDA-MB-468
Test: as above
Conditions: incubation time: 72 h
How it was run: as §1

Compared with `N#Cc1ccc(COC[C@H]2O[C@@H](n3c(NCc4ccc(Cl)c(Cl)c4)nc4c(N)ncnc43)[C@H](O)[C@@H]2O)cc1` (10000 nM), `COc1cc(OC2CCN(C)CC2)ccc1Nc1ncc2c(n1)n(C1CCCC1)c(=O)n2C` [AZ 3146] (10000 nM) is lower in normalised response: 72.5% for the first, 28.6% for the second.

Going from `CN(C)c1nc(N(C)C)nc(N(C)C)n1` [Altretamine] (10000 nM) to `O=C(/C=C/c1cccc(S(=O)(=O)Nc2ccccc2)c1)NO` [Belinostat] (10000 nM), the normalised response falls from 104% to 8.88%.

System: MCF-10A
Test: as above
Conditions: incubation time: 72 h
How it was run: as §1

First: N#Cc1ccc(COC[C@H]2O[C@@H](n3c(NCc4ccc(Cl)c(Cl)c4)nc4c(N)ncnc43)[C@H](O)[C@@H]2O)cc1 (10000 nM)
Second: COc1cc(OC2CCN(C)CC2)ccc1Nc1ncc2c(n1)n(C1CCCC1)c(=O)n2C [AZ 3146] (10000 nM)
The normalised response of the first is higher: 59.2% for the first, 47.8% for the second.

Compared with `CN(C)c1nc(N(C)C)nc(N(C)C)n1` [Altretamine] (10000 nM), `O=C(/C=C/c1cccc(S(=O)(=O)Nc2ccccc2)c1)NO` [Belinostat] (10000 nM) is lower in normalised response: 107% for the first, 16.1% for the second.

System: BT-474
Test: as above
Conditions: incubation time: 72 h
How it was run: as §1

First: N#Cc1ccc(COC[C@H]2O[C@@H](n3c(NCc4ccc(Cl)c(Cl)c4)nc4c(N)ncnc43)[C@H](O)[C@@H]2O)cc1 (10000 nM)
Second: COc1cc(OC2CCN(C)CC2)ccc1Nc1ncc2c(n1)n(C1CCCC1)c(=O)n2C [AZ 3146] (10000 nM)
The normalised response of the first is higher: 68.2% for the first, 59.9% for the second.

Compared with `CN(C)c1nc(N(C)C)nc(N(C)C)n1` [Altretamine] (10000 nM), `O=C(/C=C/c1cccc(S(=O)(=O)Nc2ccccc2)c1)NO` [Belinostat] (10000 nM) is lower in normalised response: 98.7% for the first, 5.7% for the second.

System: SK-BR-3
Test: as above
Conditions: incubation time: 72 h
How it was run: as §1

First: N#Cc1ccc(COC[C@H]2O[C@@H](n3c(NCc4ccc(Cl)c(Cl)c4)nc4c(N)ncnc43)[C@H](O)[C@@H]2O)cc1 (10000 nM)
Second: COc1cc(OC2CCN(C)CC2)ccc1Nc1ncc2c(n1)n(C1CCCC1)c(=O)n2C [AZ 3146] (10000 nM)
The normalised response of the first is lower: 47.4% for the first, 52.4% for the second.
